Experimental data: publication PMC6429055, “Synthesis, Photochemical and In Vitro Cytotoxic Evaluation of New Iodinated Aminosquaraines as Potential Sensitizers for Photodynamic Therapy” (Molecules, 2019)

What was measured:
[1] = Fluorescence quantum yield; format: physicochemical; conditions: In CHCl3
Description: As expected, due to the covalent link between iodine and the aminosquaraine, a strong heavy atom effect can be observed in all cases. This effect is emphasized in the case of the bis(hydroxyethyl)amino substituent group (dye 5c).

[2] = Singlet oxygen formation quantum yield (phosphorescence emission at ~1270 nm vs phenazine standard); format: physicochemical; conditions: In CHCl3, excitation 337 nm
Method: The evaluation of the photosensitizing efficiency of the aminosquaraine dyes was performed in chloroform, by determining the singlet oxygen formation quantum yields (ΦΔ). Phenazine was used as standard. The phosphorescence emission of singlet oxygen generated by the sensitizers at approximately 1270 nm is presented in Figure 2 and the determined quantum yields are summarized in Table 1.
These ΦΔ values were obtained by a simple comparison of the integrated areas determined for the standard and samples, using the same OD at the excitation wavelength. For each determination an average of 100 phosphorescence spectra were used. […] As previously reported, the amino group in the squaric ring enhances singlet oxygen generation efficiency when compared with the unsubstituted zwitterionic dye 3. […] This is related with the intramolecular charge transfer (ICT) mechanism which provides a non-radiative deactivation pathway, therefore decreasing the singlet oxygen formation quantum yields ([44] and references therein).
The singlet oxygen measurement set-up was assembled in our laboratory as previously described. As an excitation source we used a nitrogen laser, excitation wavelength = 337 nm. The detector was an InGaAs CCD (model i-Dus from Andor Technology Limited, Belfast, UK) working at low temperature (−60 °C) coupled to a fixed spectrograph, model Shamrock 163i, also from Andor. Phenazine (standard) was used at O.D. = 0.6 in chloroform. The ΦΔ values were obtained by comparing the total area of the emission spectra for the reference and for each dye under study in the same solvent, with the same optical density at the excitation wavelength. […].

[3] = SRB cytotoxicity in non-tumor porcine liver primary cell culture, dark and after irradiation; format: cell-based; conditions: pig, PLP2 porcine liver primary cell culture (non-tumor), non-tumor cells, mean ± SD
Method: (§1) Stock solutions of the aminosquaraines 5a–e with different concentrations (0.0375 μM, 0.15 μM, 0.6 μM, 6 μM, 12 μM, 25 μM, 50 μM, 500 μM) were prepared using a solution of 3% DMSO in DMEM and kept at−20 °C. Prior to the in vitro assays diluted solutions were prepared with the same solvent to obtain solutions with final concentrations of 0.03 μM, 0.3 μM, 0.6 μM, 1.25 μM, 2.5 μM and 25 μM.
(§2) The cytotoxicity of the squaraine dyes was tested in the dark and under irradiation. For irradiation of the cells a halogen/tungsten lamp (24 V and 250 W, Osram, Carnaxide, Portugal) was used with a fluence rate of […] (measured with an ILT 1400-A radiometer equipped with a SEL033 detector, ILT, Peabody, MA, USA). The cells were irradiated continuously for 30 min. A 3% aqueous solution of K2Cr2O7 was placed between the lamp and the cells as a liquid cut off filter to remove light of wavelength shorter than ~500 nm. The temperature to which the cells were exposed was carefully monitored to guarantee cell viability.
A cell culture was prepared from a freshly harvested porcine liver obtained from a local slaughter house, and it was designed as PLP2. Briefly, the liver tissues were rinsed in Hank’s balanced salt solution containing 100 U/mL penicillin and 100 µg/mL streptomycin and divided into 1×1 mm^3 explants to ensure that all liver cells were able to access the nutrients provided by the medium. Some of these explants were placed in 25 cm^2 tissue flasks in DMEM medium supplemented with 10% fetal bovine serum, 2 mM non-essential amino acids and 100 U/mL penicillin, […] streptomycin and incubated at 37 °C with a humidified atmosphere containing 5% CO2. The medium was changed every two days. Cultivation of the cells was continued with direct monitoring every two or three days using a phase contrast microscope. Before confluence was reached, cells were subcultured and plated in 96-well plates at a density of 1.0 × 10^4 cells/well, and cultivated in DMEM medium with 10% FBS, 100 U/mL penicillin and 100 µg/mL streptomycin [47]. The PLP2 cells were incubated with the squaraine dyes and submitted to the two independent processes—dark and irradiation—as described earlier for the human tumor cell lines. The SRB assay was performed according to the procedure previously described. The results were expressed in GI50 values. All the assays were performed in duplicate. Ellipticine was used as standard.

[4] = test system: HepG2 (hepatocellular carcinoma); assay: SRB cytotoxicity, dark and after irradiation (photodynamic treatment); format: cell-based; conditions: Homo sapiens, mean ± SD
Method: as §1, §2
(§3) Four human tumor cell lines were used: MCF-7 (breast adenocarcinoma), NCI-H460 (non-small cell lung carcinoma), HeLa (cervical carcinoma) and HepG2 (hepatocellular carcinoma) from DSMZ (Leibniz-Institut DSMZ-Deutsche Sammlung von Mikroorganismen und Zellkulturen GmbH, Mönchengladbach, Germany). Cells were routinely maintained as adherent cell cultures in RPMI-1640 medium containing 10% heat-inactivated FBS and 2 mM glutamine at […], in a humidified air incubator containing 5% CO2. Each cell line was plated at an appropriate density (7.5 × 10^3 cells/well for MCF-7 and NCI-H460, and 1.0 × 10^4 cells/well for HeLa and HepG2) in 96-well plates, allowed to attach for 24 h and then treated with different concentrations of each squaraine dye. Controls were set with the cells in the absence of the dyes in 3% DMSO in DMEM and in the growth medium only. After the incubation step (24 h), the cells were submitted to the photodynamic treatment for 30 min. Controls in the absence of light were performed on every test. Neither DMSO alone, nor light alone, nor the combination of both induced toxicity on the cells. Then, the growth medium was changed and the cells were incubated for further 24 h. Following this incubation period, the adherent cells were fixed by adding cold 10% TCA (100 µL) and incubated for 60 min at 4 °C. Plates were then washed with deionized water and subsequently dried. SRB solution (0.1% in 1% acetic acid, 100 µL) was then added to each plate well and incubated for 30 min at room temperature. Unbound SRB was removed by washing with 1% acetic acid. Plates were air dried, the bound SRB was solubilized with 10 mM Tris (200 µL) and the absorbance was measured at 540 nm in an ELX800 Microplate Reader (Bio-Tek Instruments Inc., Winooski, VT, USA). The results were expressed in GI50 values, which correspond to the concentration of dye that causes 50% inhibition of cell growth. All the assays were performed in duplicate. Ellipticine was used as standard.

[5] = test system: MCF-7 (breast adenocarcinoma); assay: as above; format: cell-based; conditions: Homo sapiens, mean ± SD
Method: as §1, §2, §3

[6] = test system: NCI-H460 (non-small cell lung carcinoma); assay: as above; format: cell-based; conditions: Homo sapiens, mean ± SD
Method: as §1, §2, §3

[7] = test system: HeLa (cervical carcinoma); assay: as above; format: cell-based; conditions: Homo sapiens, mean ± SD
Method: as §1, §2, §3

[8] = test system: HeLa, HepG2, MCF-7 and NCI-H460 cell lines; assay: SRB growth inhibition across the human tumor cell line panel, dark vs irradiation (text summaries); format: cell-based; conditions: for GI50: Homo sapiens, light or radiation study, irradiated, range over cell lines, stated jointly for 5a and 5b, read-out: GI50 upon illumination, range over all the cell lines tested; for Difference between growth inhibition percentages upon illumination and in the dark: dye 0.3 μM, range over the cell lines
Method: In this representative example, the growth inhibition in the dark was less than 20% in more than 75% of the assays.
as §1, §2, §3

[9] = HepG2, light or radiation study, 0.5 h, Irradiated 30 min, halogen/tungsten lamp >500 nm
[10] = MCF7, light or radiation study, 0.5 h, Irradiated 30 min, halogen/tungsten lamp >500 nm
[11] = NCI-H460, light or radiation study, 0.5 h, Irradiated 30 min, halogen/tungsten lamp >500 nm
[12] = light or radiation study, 0.5 h, Irradiated 30 min, halogen/tungsten lamp >500 nm

CCN1C(=CC2=C([O-])C(=Cc3sc4cc(I)ccc4[n+]3CC)C2=O)Sc2cc(I)ccc21 [Dye 3, 4-[(3-Ethyl-6-iodobenzothiazol-3-ium-2-yl)methylidene]-2-[(3-ethyl-6-iodo-3H-benzothiazol-2-ylidene)methyl]-3-oxocyclobut-1-en-1-olate]
ΦF (fluorescence quantum yield) [1]: 0.03
Φ∆ (singlet oxygen generation quantum yield) [2]: 0.05
melting point: > 300 °C

CCN1C(=CC2=C(N)C(=Cc3sc4cc(I)ccc4[n+]3CC)C2=O)Sc2cc(I)ccc21.[I-] [Dye 5a, 2-[2-Amino-3-(3-ethyl-6-iodo-3H-benzothiazol-2-ylidenemethyl)-4-oxocyclobut-2-enylidenemethyl]-3-ethyl-6-iodobenzothiazol-3-ium iodide]
GI50 ([3]; Dark): 17500 ± 100 nM
GI50 ([3]; Irradiated 30 min): 2000 ± 100 nM
GI50 [4, 9]: 80 ± 1 nM
GI50 ([4]; HepG2, Dark): 20000 ± 2000 nM
GI50 [5, 10]: 10 ± 1 nM
GI50 ([5]; MCF7, Dark): 15000 ± 1000 nM
GI50 [6, 11]: 190 ± 20 nM
GI50 ([6]; NCI-H460, Dark): 15300 ± 800 nM
GI50 ([7]; Dark): 2540 ± 20 nM
GI50 [7, 12]: 4 ± 0.1 nM
ΦF (fluorescence quantum yield) [1]: 0.02
Φ∆ (singlet oxygen generation quantum yield) [2]: 0.22
melting point: > 300 °C
GI50 [8]: 4 to 190 nM
Difference between growth inhibition percentages upon illumination and in the dark [8]: 46–68%

CCN1C(=CC2=C(NC)C(=Cc3sc4cc(I)ccc4[n+]3CC)C2=O)Sc2cc(I)ccc21.[I-] [Dye 5b, 3-Ethyl-2-[3-(3-ethyl-6-iodo-3H-benzothiazol-2-ylidenemethyl)-2-(methylamino)-4-oxocyclobut-2-enylidenemethyl]-6-iodobenzothiazol-3-ium iodide]
GI50 ([3]; Dark): 5700 ± 600 nM
GI50 ([3]; Irradiated 30 min): 30 ± 1 nM
GI50 [4, 9]: 60 ± 1 nM
GI50 ([4]; HepG2, Dark): 15000 ± 2000 nM
GI50 [5, 10]: 10 ± 1 nM
GI50 ([5]; MCF7, Dark): 10000 ± 700 nM
GI50 [6, 11]: 180 ± 70 nM
GI50 ([6]; NCI-H460, Dark): 8100 ± 900 nM
GI50 ([7]; Dark): 1200 ± 100 nM
GI50 [7, 12]: 11 ± 10 nM
ΦF (fluorescence quantum yield) [1]: 0.03
Φ∆ (singlet oxygen generation quantum yield) [2]: 0.26
melting point: > 300 °C
GI50 [8]: 4 to 190 nM
Difference between growth inhibition percentages upon illumination and in the dark [8]: 43–73%

CCN1C(=CC2=C(N(CCO)CCO)C(=Cc3sc4cc(I)ccc4[n+]3CC)C2=O)Sc2cc(I)ccc21.[I-] [Dye 5c, 3-Ethyl-2-{3-(3-ethyl-6-iodo-3H-benzothiazol-2-ylidenemethyl)-2-[bis(2-hydroxy-ethyl)amino]-4-oxocyclobut-2-enylidenemethyl}-6-iodobenzothiazol-3-ium iodide]
GI50 ([3]; Dark): 22000 ± 900 nM
GI50 ([3]; Irradiated 30 min): 440 ± 10 nM
GI50 [4, 9]: 260 ± 30 nM
GI50 ([4]; HepG2, Dark): 23000 ± 2000 nM
GI50 [5, 10]: 420 ± 60 nM
GI50 ([5]; MCF7, Dark): > 25000 nM
GI50 [6, 11]: 980 ± 40 nM
GI50 ([6]; NCI-H460, Dark): 23000 ± 2000 nM
GI50 ([7]; Dark): 2000 ± 100 nM
GI50 [7, 12]: 310 ± 30 nM
ΦF (fluorescence quantum yield) [1]: 0.01
Φ∆ (singlet oxygen generation quantum yield) [2]: 0.09
melting point: > 300 °C

CCN1C(=CC2=C(N(C)CCO)C(=Cc3sc4cc(I)ccc4[n+]3CC)C2=O)Sc2cc(I)ccc21.[I-] [Dye 5e, 3-Ethyl-2-{3-(3-ethyl-6-iodo-3H-benzothiazol-2-ylidenemethyl)-2-[(2-hydroxy-ethyl)methylamino]-4-oxocyclobut-2-enylidenemethyl}-6-iodobenzothiazol-3-ium iodide]
GI50 ([3]; Dark): 11900 ± 200 nM
GI50 ([3]; Irradiated 30 min): 420 ± 10 nM
GI50 [4, 9]: 190 ± 10 nM
GI50 ([4]; HepG2, Dark): 11400 ± 900 nM
GI50 [5, 10]: 230 ± 20 nM
GI50 ([5]; MCF7, Dark): 9600 ± 200 nM
GI50 [6, 11]: 240 ± 30 nM
GI50 ([6]; NCI-H460, Dark): 13000 ± 1000 nM
GI50 ([7]; Dark): 2100 ± 200 nM
GI50 [7, 12]: 190 ± 20 nM
ΦF (fluorescence quantum yield) [1]: 0.09
Φ∆ (singlet oxygen generation quantum yield) [2]: 0.16
melting point: > 300 °C
